From paper PMC10483468, “Biomimetic Dispersive Solid-Phase Microextraction: A Novel Concept for High-Throughput Estimation of Human Oral Absorption of Organic Compounds” (Analytical Chemistry, 2023)
“And” between values parts separate entries of the source, which are not always exact repeats. Equal entries are not always repeated.

Key:
human jejunum = details: value = Peff x 10^4; cited from earlier work
[1] = Dispersive biomimetic solid-phase extraction (d-BMSPE) with PC-modified POP material; format: in vitro ADME; details: 30 min; for d-BMSPE extraction efficiency: 3.5 mg/L CEC in 5 mL PBS pH 7.4, ca. 40 mg PC-modified POP, 15 rpm, 37 °C; for RMBE·10^4 (relative mol bioextraction): value = RMBE x 10^4, mol analyte extracted per mol PC attached, PBS pH 7.4, 37 °C
Description: The experimental procedure starts by spiking 5 mL of PBS at pH 7.4 mimicking pH conditions from the small intestine with 3.5 mg L^–1 of the selected CEC and mixing with ca. 40 mg of PC-modified POP material. The material is dispersed gently in the solution at 15 rpm for 30 min at physiological temperature (37 °C) using a lab rotator, followed by separation of the biomimetic material by centrifugation. After separation, the supernatant of the biomimetic extractions is analyzed by HPLC. The bioextractable fraction of every CEC is determined by subtraction from the original spike concentration.
Following the fabrication of the biomimetic polymer, several considerations should be set before carrying out the d-BMSPE. First, the amount of PC on the modified polymer (GMA@HMD@GA@HMD@PCs) to simulate the absorption area of the jejunum needs to be evaluated.
The estimated liquid volume under fasted conditions of the jejunum is ca. 20 mL.[45] However, in this work, solutions of 5 mL were selected in order to reduce the amount of biomimetic material used in every extraction protocol. Therefore, only 1/4 of the total PC amount calculated above (ca. 9 μmol) should be used to maintain the PC to jejunum liquid ratio. A crucial experimental parameter in our work is the amount of PC-laden biopolymer necessary to simulate the absorption area of the jejunum.
With respect to the remainder of experimental parameters, a gentle agitation was performed at 15 rpm to just enable a good dispersion of the polymer in the test solution. The extraction time was set to 30 min according to the average intestinal transit time and the length of the jejunum over the total length of the small intestine.[46] Finally, the extraction temperature was set to 37 °C to simulate physiological conditions.
In addition, a new bioparameter, “RMBE” that stands for "Relative Mol BioExtraction", is herein proposed for the first time. RMBE is defined as the extraction efficiency expressed as mol of analyte extracted per mol of PC attached to the biomimetic material under physiologically simulated conditions (e.g., extraction using PBS buffer at 37 °C, or gastrointestinal fluid surrogates, or actual human fluids, among others).

[2] = Dispersive extraction with the free polymer (GMA monolith); format: physicochemical; details: free polymer without PC
[3] = Dispersive extraction with the polymer prior to PC attachment (GMA@HMD@GA@HMD); format: physicochemical

Compound	experimental Peff·10^4 (human jejunum)	d-BMSPE extraction efficiency [1]	RMBE·10^4 (relative mol bioextraction) [1]	extraction efficiency, GMA monolith [2]	extraction efficiency, GMA@HMD@GA@HMD [3]
Cc1cnc(C(=O)NCCc2ccc(S(=O)(=O)NC(=O)NC3CCCCC3)cc2)cn1 [GLP, glipizide]	0.9[38] cm/ s	–	–	–	–
CC1=C(C(=O)O)N2C(=O)[C@@H](NC(=O)[C@H](N)c3ccccc3)[C@H]2SC1 [CEX, cephalexin]	1.6[6] cm/ s	–	–	–	–
CN(C)C(=N)N=C(N)N [MET, metformin]	0.1[52] cm/ s	0.9% and 0.9 ± 0.1%	3.6 ± 0.7 mol CEC/mol PC	–	–
NS(=O)(=O)c1cc(C(=O)O)c(NCc2ccco2)cc1Cl [FUR, furosemide]	0.6[49] cm/ s	26.3 ± 1.1%	49.8 ± 0.9 mol CEC/mol PC	–	–
O=C(O)Cc1ccccc1Nc1c(Cl)cccc1Cl [DCF, diclofenac]	1.6[40] cm/ s	10.6 ± 1.1%	22.6 ± 0.8 mol CEC/mol PC	~100%	~40%
CC(=O)Nc1ccc(O)cc1 [PCT, paracetamol]	4.0[6] cm/ s	15.3 ± 0.8%	60.3 ± 1.5 mol CEC/mol PC	–	–
CN/C(=N/CCSCc1nc[nH]c1C)NC#N [CTM, cimetidine]	0.8[51] cm/ s	4.6 ± 2.1%	9.6 ± 1.7 mol CEC/mol PC	–	–
